Each structure is given as a SMILES string.

In one data set the test system is tinnitus. The conditions noted are these: published studies reviewed by Jufas and Wood (2015); cited from earlier work.
The test system of data set [1] is healthy, male and female subjects. As to the kind of experiment: Study of driving performance after gaboxadol administration (Example 3). It is filed as in vivo, human. From the text:
The study participants included healthy, male and female subjects between 21 and 45 years of age, with a valid drivers license for at least 3 years.
Following a cognitive and psychomotor test battery, the driving test started at 9 am and lasted for one hour.

The test system of data set [2] is healthy adults subjected to a 5-hour sleep restriction. As to the kind of experiment: Study of daytime performance after sleep restriction (Example 4). The data set is classed as in vivo, human. The protocol:
The study included a 2-night single-blind placebo run-in period, a 4-night double-blind treatment period during which sleep was restricted to 5 hours and a 2-night single-blind placebo run-out period. The study included healthy male and female volunteers 18 to <55 years of age.
2-night run-in period: All patients received placebo
2-night run-out period: All patients received placebo
The primary endpoints included observations based on the Multiple Sleep Latency Test (MSLT) and Slow Wave Sleep (SWS) assessment.

In the next data set the test system is patients. The conditions noted are these: patients with a history of drug abuse who received gaboxadol; cited from earlier work.
For data set [3] the following is noted: human, in vivo.

Take `O=C1CN=C(c2ccccc2Cl)c2cc([N+](=O)[O-])ccc2N1` [Clonazepam]: the “efficacy in treating tinnitus” value in the data set on tinnitus is on record as “effective”.
As to `Cc1nnc2n1-c1ccc(Cl)cc1C(c1ccccc1)=NC2` [alprazolam], the “efficacy in treating tinnitus” value in the data set with tinnitus is recorded as “opposing results”.
Take `CN1C(=O)CN=C(c2ccccc2)c2cc(Cl)ccc21` [diazepam]: the “efficacy in treating tinnitus” value in the data set with tinnitus is “not effective”.
For `Oc1noc2c1CCNC2` [gaboxadol, 4,5,6,7-tetrahydroisoxazolo [5,4-c]pyridine-3-ol], in data set [1] (gaboxadol 15 mg at 4 am), the “most frequent adverse events, middle-of-the-night treatment” value was “dizziness, nausea and somnolence”. Further, the “effect on driving after evening dose compared with blood alcohol” value in data set [1] (gaboxadol 15 mg evening dose, comparison with 0.05% blood alcohol concentration) was “less than the effect observed at a 0.05% blood alcohol concentration”. Also, in data set [1] (gaboxadol 15 mg in the evening), the “most frequent adverse events, evening treatment” value is “headache and somnolence”. Further, in data set [2] (gaboxadol 15 mg versus placebo), the “biophysiological measures of stress (heart rate variability, cortisol levels, catecholamine levels, body temperature) versus placebo” value was “no differences” and the “daytime performance, effect sizes of the neurocognitive battery” value is recorded as “no strong evidence that gaboxadol improves daytime performance”. Moreover, the “daytime sleepiness during the Sleep Restriction period versus placebo (MSLT)” value in data set [2] (gaboxadol 15 mg, 4 nights, sleep restricted to 5 hours, p=0.047, 1 sided) is “significantly less daytime sleepiness”. The “MSLT longer than placebo, on average” value in data set [2] (gaboxadol 15 mg, last two Sleep Restriction days) was 2.01 min. In addition, the “Karolinska Sleepiness Score (KSS) less than placebo, on average” value in data set [2] (gaboxadol 15 mg, last two Sleep Restriction days, LDA model, p=0.058, 1 sided) stood at 0.68. Besides, in data set [2] (gaboxadol 15 mg, last two Sleep Restriction nights), the “SWS longer than placebo, on average” value stood at 20.53 min. The “slow wave sleep (SWS) during the Sleep Restriction period versus placebo” value in data set [2] (gaboxadol 15 mg, p<0.001, 1 sided) is “significantly more SWS”. Further, the psychiatric adverse events entry in the data set on patients is “steep increase”. Besides, the “CL (in the CL/F line)” value in data set [3] (iv, 10 mg) was 438 mL/min. In data set [3] (po), the “dose dependence of plasma AUC0-∞ and Cmax” value is given as “dose proportional increases”.

(Values after US10071083B2 (Ovid Therapeutics Inc., priority 2017, dated 2018).)
